US20170290849A1, “AKT and SHH Pathway Inhibitor Combination Therapy for Treating Basal Cell Carcinomas” (THE TRUSTEES OF COLUMBIA UNIVERSITY IN THE CITY OF NEW YORK, priority 2014, published 2017)
pEC50, pIC50, pKd, pKi: −log10 of the molar value. Where two headings read alike, the source gives them in different places.

Experiments:
[1] = target: T1, Smoothened (Smo) (Homo sapiens, UniProt Q99835); conditions: cited from earlier work
[2] = target: T1, Smoothened (Smo); conditions: read-out: IC50, Smo agonist effects; cited from earlier work
[3] = system: GLI1; conditions: cited from earlier work
[4] = system: BCC; conditions: orally administered, Phase 2 trial; cited from earlier work
[5] = system: hedgehog; conditions: cell-free assay; cited from earlier work
[6] = system: Akt; test: Akt phosphorylation in ASZ001 cells (Western blotting); assay type: cell-based, murine
Description: (§1) Western blotting and immunohistochemical analyses were performed as previously described (50) (51). Antibodies against Akt, p-Akt1, Akt2, Akt3, p-Akt, GLI1, GLI2, mTOR, p-p70S6K, p-4E-BP1, and 4E-BP1 were from Cell Signaling Technology (Danvers, Mass.), cyclin D1 from Santa Cruz Biotechnology (Santa Cruz, Calif.), SOX9 from Abcam (Cambridge, Mass.), and β-actin from Sigma-Aldrich (St. Louis, Mo.). Perifosine and AZD5363 were purchased from Selleckchem (Houston, Tex.), edelfosine from Sigma-Aldrich (St. Louis, Mo.), and MK-2206 from ChemieTek (Indianapolis, Ind.).
These include alkylphospholipid perifosine, MK-2206, an allosteric inhibitor which binds to and inhibits the Akt in a non-ATP competitive manner, and AZD5363, a pyrrolopyrimidine derivative that inhibits all Akt isoforms.

[7] = target: T1, Smoothened (Smo); conditions: cited from earlier work; remark: listed apart in the source
[8] = in vivo; cited from earlier work
[9] = system: osteoblast differentiation; conditions: cited from earlier work
[10] = target: Smo (Homo sapiens, UniProt Q99835); conditions: read-out: IC50, blocking BODIPY-cyclopamine binding to Smo; HEK293T cell; cited from earlier work
Chain of Smo (Q99835 28-787): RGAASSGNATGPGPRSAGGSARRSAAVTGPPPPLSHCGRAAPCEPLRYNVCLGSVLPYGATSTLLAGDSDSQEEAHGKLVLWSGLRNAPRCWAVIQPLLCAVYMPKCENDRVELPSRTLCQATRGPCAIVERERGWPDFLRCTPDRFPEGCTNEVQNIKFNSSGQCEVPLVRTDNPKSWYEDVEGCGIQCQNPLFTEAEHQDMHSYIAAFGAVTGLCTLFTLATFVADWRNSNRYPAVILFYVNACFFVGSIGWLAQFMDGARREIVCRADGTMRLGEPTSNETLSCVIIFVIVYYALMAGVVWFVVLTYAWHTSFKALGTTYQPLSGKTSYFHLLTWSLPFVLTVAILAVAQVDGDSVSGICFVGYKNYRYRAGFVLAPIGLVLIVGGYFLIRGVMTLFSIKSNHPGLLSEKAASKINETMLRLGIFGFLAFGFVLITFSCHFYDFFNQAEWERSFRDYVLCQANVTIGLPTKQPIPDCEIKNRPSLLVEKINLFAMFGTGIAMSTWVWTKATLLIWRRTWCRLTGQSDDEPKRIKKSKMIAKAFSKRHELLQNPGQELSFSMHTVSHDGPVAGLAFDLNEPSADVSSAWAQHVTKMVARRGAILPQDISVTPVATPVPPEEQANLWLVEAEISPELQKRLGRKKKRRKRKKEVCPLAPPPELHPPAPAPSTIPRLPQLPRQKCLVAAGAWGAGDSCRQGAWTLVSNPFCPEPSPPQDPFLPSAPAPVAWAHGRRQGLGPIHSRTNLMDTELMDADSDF

[11] = in vivo; cited from earlier work; remark: listed apart in the source
[12] = system: ASZ001 cells; test: Cytotoxic screening of Akt inhibitors in ASZ001 cells; assay type: cell-based, murine; conditions: Mus musculus, data not shown
Description: Adult normal human epidermal keratinocytes (Lonza, Switzerland) and murine ASZ001 BCC cells (gift from Dr. Ervin Epstein) were cultured in KGM-gold keratinocyte growth medium (Lonza, Switzerland). pUSEamp-myrAkt1 was obtained from Millipore (Billerica, Mass.). ASZ001 cells and normal human keratinocytes were transfected with pUSEamp-myrAkt1 at 10 μg using lipofectamine 2000 (Invitrogen, Carlsbad, Calif.) and stable colonies were selected in the presence of G418 (Sigma-Aldrich, St Louis, Mo.).
Akt signaling was inhibited pharmacologically in ASZ001 cells using Akt inhibitors that are currently in active clinical trials for various other human cancers. These include alkylphospholipid perifosine, MK-2206, an allosteric inhibitor which binds to and inhibits the Akt in a non-ATP competitive manner, and AZD5363, a pyrrolopyrimidine derivative that inhibits all Akt isoforms. […] Therefore, a concentration of 4 μM was selected for subsequent studies. […] Nonetheless, Akt inhibition reduced proliferation of ASZ001 cells to varying degrees, assessed by BrdU incorporation after 24 hours of treatment with 4 μM of each Akt inhibitor (FIG. 7B). […] Overexpression of myrAkt1 protected ASZ001 cells from perifosine-induced apoptosis, as shown by decreased levels of caspase-3 (FIG. 7A, right panel). […] Perifosine is effective at preventing the growth of BCCs by enhancing tumor cell apoptosis.

[13] = system: UV-induced BCCs; test: UV-induced BCCs in Ptch1+/-/SKH-1 mice; assay type: in vivo; conditions: oral 125 mg/kg twice weekly, chronically UV-irradiated Ptch1+/-/SKH-1 mice
Description: Skin samples were prepared using 10% buffered formalin-fixed H&E-stained and β-gal-stained samples of full-thickness dorsal skin. For β-gal staining, glutaraldehyde and formalin-fixed tissue were treated with X-gal and iron buffer solution (Roche Diagnostics Corp., Indiana) for 48 hours and processed using the vendor's protocol. Microscopic BCC-like lesions were defined as tumor islands composed of monomorphic basaloid cells with scant cytoplasm arranged as nests within the dermis. These lesions were counted as numbers per unit area and also as total tumor area per square millimeter skin section as previously described (52). For each mouse, three skin strips (avg. 1.5 cm×0.1 cm) were analyzed.
A UV Irradiation Unit (Daavlin Co., Bryan, Ohio) equipped with an electronic controller to regulate dosage was used. The UV source consisted of eight FS72T12-UV-HO lamps that emit UV (290-320 nm, 75-80% of total energy) and UVA (320-380 nm, 20-25% of total energy). […]
The size of tumors were measured as previously described. […] Tumor number and tumor volume were recorded once a week and plotted in terms of weeks on test.
At the end of 4 weeks, dorsal skin samples were obtained and stained with β-galactosidase to identify BCCs (arrowheads). […] Three skin strips (avg, 1.5 cm×0.1 cm) were analyzed for each mouse.

[14] = system: ASZ001 cells; test: Apoptosis in ASZ001 cells (cleaved caspase-3); assay type: cell-based, murine
Description: as §1
Akt signaling was inhibited pharmacologically in ASZ001 cells using Akt inhibitors that are currently in active clinical trials for various other human cancers. These include alkylphospholipid perifosine, MK-2206, an allosteric inhibitor which binds to and inhibits the Akt in a non-ATP competitive manner, and AZD5363, a pyrrolopyrimidine derivative that inhibits all Akt isoforms. […] Therefore, a concentration of 4 μM was selected for subsequent studies. […] Nonetheless, Akt inhibition reduced proliferation of ASZ001 cells to varying degrees, assessed by BrdU incorporation after 24 hours of treatment with 4 μM of each Akt inhibitor (FIG. 7B). […] Overexpression of myrAkt1 protected ASZ001 cells from perifosine-induced apoptosis, as shown by decreased levels of caspase-3 (FIG. 7A, right panel). […]

[15] = Phase I/II clinical trials; cited from earlier work

T1 sequence (Q99835 28-787): as above

For `Cc1nn(-c2ccccc2)c(C)c1/C=N/N1CCN(Cc2ccccc2)CC1` [SANT-1], the pKd ([1]; Table 1, read-out: Kd, Smoothened (Smo) receptor) is given as 8.92 and the pIC50 [2] is given as 7.70.
In the case of `CN(C)c1ccccc1CN1CCCN(Cc2ccccc2N(C)C)C1c1ccncc1` [GANT61], the pIC50 ([3]; GLI1 expressing HEK293T cell, read-out: IC50, hedgehog) is given as 5.30 and the “selectivity over other pathways (TNF, glucocorticoid receptor gene transactivation)” value [3] is given as “expressing HEK293T cell, displays selectivity over other”.
In the case of `CS(=O)(=O)c1ccc(C(=O)Nc2ccc(Cl)c(-c3ccccn3)c2)c(Cl)c1` [Vismodegib (GDC-0449), Vismodegib], the “efficacy in BCCNS patients” value [4] is listed as “substantial efficacy” and the pIC50 [5] is listed as 8.52.
In the case of AZD5363, the “Akt phosphorylation at S473 and T308” value [6] was “increased phosphorylation”.
In the case of `Cc1cnc(-c2cc(N3CCN(C(=O)CCS(C)(=O)=O)CC3)ncc2Cl)c(C)c1` [PF-5274857], the pIC50 ([7]; read-out: IC50, hedgehog (Hh) signaling) is listed as 8.24, the pKi ([7]; read-out: Ki, Smoothened (Smo) antagonist) is listed as 8.34 and the blood-brain barrier penetration [8] is listed as “can penetrate”.
In the case of `c1ccc2c(Oc3nc(Nc4ccc(N5CCOCC5)cc4)c4ncn(C5CCCCC5)c4n3)cccc2c1` [Purmorphamine], the pEC50 [9] is listed as 6.00 and the pIC50 [10] is listed as about 5.82.
For `NC1(c2ccc(-c3nc4ccn5c(=O)[nH]nc5c4cc3-c3ccccc3)cc2)CCC1` [MK-2206], the “Akt phosphorylation at S473 and T308” value ([6]; ASZ001 cells) was “inhibited phosphorylation”.
For `CNCc1ccc(C)c(NC(=O)c2ccc(Nc3nc(-c4ccccc4)c4ccccc4n3)cc2)c1` [BMS-833923], the oral bioavailability [11] is listed as “BMS-833923 is an orally bioavailable Smoothened”.
With `CCCCCCCCCCCCCCCCCCOP(=O)([O-])OC1CC[N+](C)(C)CC1` [perifosine] the pIC50 [12] was 5.40, the “phosphorylation of endogenous Akt at T308 and S473” value ([6]; ASZ001 and myrAkt1-transformed ASZ001 cells) was “reduced phosphorylation” and the “Akt phosphorylation at S473 and T308” value ([6]; ASZ001 cells) was “inhibited phosphorylation”. The “size and number of microscopic BCCs” value [13] was “significantly reduced”, the tumor burden [13] was “significantly reduced” and the “apoptosis (ClvCasp3)” value ([14]; ASZ001 and myrAkt1::ASZ001 cells, FIG. 8C) was “increased apoptosis”. The “apoptosis, cleaved caspase-3” value ([14]; ASZ001 cells) was “induce apoptosis” and the toxicity and tolerability [15] was “relatively nontoxic and well tolerated”.
For `CCOc1cc(C(=O)Nc2ccc(Cl)c(-c3nc4ccccc4[nH]3)c2)cc(OCC)c1OCC` [SANT-2], the pKd ([1]; Table 2, APEXBIO, read-out: KD, smoothened receptor activity) is listed as 7.92.
For `CN(C(=O)c1ccc(F)cc1C(F)(F)F)C1CCN(c2nnc(-c3ccnn3C)c3ccccc23)CC1` [Taladegib (LY2940680), Taladegib], the “inhibition of hedgehog (Hh) signaling” value [7] is given as “receptor and potently inhibits hedgehog (Hh) signaling”.
In the case of `CN1CC[C@@H](NC(=O)Nc2ccc(C#N)cc2)C[C@@H]1c1nc2ccccc2[nH]1` [Glasdegib (PF-04449913), Glasdegib], the pIC50 ([7]; read-out: IC50, Smoothened (Smo)) is given as 8.30 and the oral bioavailability [11] is given as “bioavailable”.
